The text below walks through data of patent US20240238299A1, “USE OF PYRROLOPYRIMIDINE COMPOUND” (GUANGZHOU JOYO PHARMATECH CO., LTD, priority 2021, published 2024).

Experiment [1] concerns NO secretion by BV-2 cell line. Description: NO secretion by LPS/IFN-γ-activated BV-2 cells (Griess Reagent System). Type of experiment: cell-based, Mouse. On the procedure:
(§1) Step 1: BV-2 cells in the exponential growth phase were collected, and viable cells were counted using a Vi-Cell XR cell counter. The cell suspension was adjusted to an appropriate concentration with the culture medium. 160 μL of cell suspension was added to each well of a 96-well cell culture plate, resulting in a final cell concentration of 12,000 cells per well. The culture plate was incubated for 24 hours in a 37° C., 5% CO2 incubator.
(§2) Step 2: A 10 mM DMSO compound stock solution was diluted at a ratio of 1:4 using DMSO to prepare a series of 1000× test compound solutions. These 1000× test compound solutions were further diluted at a ratio of 1:100 using cell culture medium to prepare a series of 10× test compound solutions. Finally, the 96-well plate that had been plated with cells the day before was taken out. According to the experimental well plate loading design, 20 μL of the corresponding 10× solution was added to each well, with three duplicate wells for each drug concentration. The final concentrations of the test compounds used in the experiment (i.e., 1× solutions) have a range of 10, 2.5, 0.625, 0.156, 0.0391, 0.0098, and 0.0024 μM. The final DMSO concentration in each well was 0.1%.
(§3) After the compound was added, the 96-well plate was incubated for half an hour in the 37° C., 5% CO2 incubator.
(§4) After the pre-incubation was completed, 20 μL of culture medium containing 100 ng/mL LPS and 100 ng/mL IFN-γ (final concentrations of 10 ng/mL LPS and 10 ng/mL IFN-7) was added to each well to induce the activation of BV-2 cells. The culture plate was then incubated for 24 hours in the 37° C., 5% CO2 incubator.
(§5) Step 3: After 24 hours of treatment with the compound, the culture plate was centrifuged at 1200 rpm for 5 minutes. The supernatant was pipetted into another plate, which was sealed with tinfoil and stored at −20° C. for future ELISA and Griess reagent system assays. The cell culture plate from which the supernatant had been removed was immediately used for cell proliferation assays using the CellTiter-Glo (CTG) method.
Step 5 (NO and CCL5 detection): The CCL5 levels in the supernatant were detected using an ELISA kit (Mouse CCL5/RANTES DuoSet ELISA; R&D; DY478-05), following the instructions provided with the kit. The nitric oxide (NO) levels in the supernatant were detected using the Griess Reagent System (Promega; G2930), following the instructions provided with the kit.
Step 1: Firstly, the optical density values obtained from ELISA and Griess tests were used to plot a standard curve and calculate the absolute concentrations of each sample. The absolute concentration was then calibrated using the CTG fluorescence value corresponding to each sample to obtain the calibrated concentration. The formula for calculating the calibrated concentration was: calibrated concentration=absolute concentration/CTG fluorescence value of the same sample.
Step 2: Based on the calibrated concentration of each sample, the relative percentage of CCL5 or NO secretion (i.e., CCL5 production (%) or NO production (%)) at each test concentration relative to the blank (DMSO) group was calculated. The formula for calculating the relative percentage was: relative percentage %=(calibrated concentration of the test concentration group)/(calibrated concentration of the blank group).
Step 3: Finally, the relative percentage of CCL5 secretion or the relative percentage of NO secretion was plotted against the logarithm of the compound concentration. […]
(In general: Griess reagent forms a coloured azo dye with nitrite.)

In experiment [2] the test system is BV-2 cells. Briefly: CTG cell proliferation assay, LPS/IFN-γ-activated BV-2 cells. Type of experiment: cell-based, Mouse. On the procedure:
as §1, §2, §3, §4, §5
Step 4: In the cell culture plate from which the supernatant had been removed, 100 μL of PBS was added to each well. According to the instructions of the CellTiter-Glo (CTG) kit, 50 μL of pre-melted and room-temperature balanced CTG solution was added to each well. The plate was then mixed for 2 minutes using a microplate shaker. After letting it stand at room temperature for 10 minutes, the fluorescence signal value was measured using an Envision 2104 plate reader.
Step 1: Using the CTG fluorescence signal values, the percentage of surviving cells (surviving cells %) at each test concentration relative to the blank (DMSO) group was calculated. The formula was: surviving cells %=fluorescence value of the test concentration group/fluorescence value of the blank group.
Step 2: the percentage of surviving cells was plotted against the logarithm of the compound concentration. Nonlinear regression was used to fit the curve, and the formula “log(inhibitor) vs. response—Variable slope” in the software GraphPad Prism 5 was employed to calculate the IC50 value.
Step 3: The formula for calculating the inhibition rate was: inh. (%)={fluorescence value of the blank group−fluorescence value of the test concentration group}/fluorescence value of the blank (DMSO) group.

Experiment [3] relates to MOG35-55-induced EAE mouse spinal cord. Description: EAE mouse model, spinal cord H&E and LFB pathological scoring. Type of experiment: in vivo, C57BL/6 mice. As to conditions: day 28. The procedure: For each group consisting of 5 mice, euthanasia was performed followed by cardiac perfusion with saline. Subsequently, an equal volume of 10% formalin was perfused. Spinal cord tissues from the mice were collected, soaked in […], and then sectioned. Hematoxylin & Eosin (H&E) staining and Luxol Fast Blue (LFB) staining were performed, along with pathological scoring.
At the end of the experiment, the spinal cords of mice were collected, with 2 in the normal control group and 5 in each of the remaining groups. The spinal cords were fixed in formalin, followed by paraffin embedding and sectioning. Two sections were taken from each mouse and subjected to H&E and FLB staining for pathological observation. Scoring was done for cell infiltration, lesion areas, and demyelination. […] Specifically, after H&E staining of the mouse spinal cord, cell infiltration (A) and lesion area (B) in the spinal cord sections were counted. After LFB staining, the degree of demyelination (C) in the spinal cord sections was scored. Data were presented as mean±standard error of the mean (mean±SEM). *p<0.05, **p<0.01, ***p<0.001, ****p<0.0001, vs. vehicle control group (Vehicle), one-way ANOVA.

Turning to `CN(c1ncnc2[nH]ccc12)[C@@H]1CCc2cc(C#N)nn2C1` [Compound I], the “Maximum inhibition rate on NO secretion by BV-2” value in experiment [1] (24 h co-incubation, up to 10 μM) was 100%. Also, in experiment [1] (Mus musculus, BV-2, 24 h co-incubation, read-out: IC50 on NO secretion by BV-2), the IC50 (as a rule, the point on the concentration scale where inhibition reaches its midpoint) came to 487 nM. For the same compound, the “inhibitory effect on cell proliferation” value in experiment [2] (24 h co-incubation with BV-2, highest test concentration 10 μM) is “no inhibitory effect on cell proliferation”. Also, the “maximum rate of increase in cell numbers compared to blank (DMSO) well” value in experiment [2] (BV-2, 24 h, concentration greater than 0.1 μM) stood at 46.39%. Besides, in experiment [2] (Mus musculus, BV-2, 24 h co-incubation, LPS/IFN-γ, highest concentration 10 μM, read-out: Maximum inhibition rate on BV-2 cell proliferation), the inhibition at up to 10 µM is -46.4%. Moreover, in experiment [3] (10 mg/kg BID), the “cell infiltration, lesion area and demyelination compared with Fingolimod” value was “significantly better therapeutic effect than the positive drug Fingolimod group”. Further, in experiment [3] (all doses (3, 10, 20 mg/kg BID, 20 mg/kg QD)), the “damage to the spinal cord caused by EAE modeling” value is listed as “significantly inhibited the damage to the spinal cord”.
